Experimental data taken from patent US20240148744A1 (Celgene Corporation, priority 2021, published 2024).
pIC50: −log10 of the molar value. Read-outs that look alike come from different tables or passages of the source.

Columns and labels:
[1] = tested on: Onchocerca gutturosa adult male worms; test: Onchocerca gutturosa in vitro screening model: adult worm motility score and MTT/formazan viability; assay type: cell-based
[2] = tested on: Dirofilaria immitis; test: Heartworm screen Dirofilaria immitis (stage DiMF/DiL4 not specified in the tables); assay type: cell-based; conditions: read-out: D. immitis Activity class
[3] = read-out: O. gutt Activity class

Row | Structure (SMILES) | pIC50 [1, 3] | pIC50 [2] | pIC50 ([1]; read-out: O. gutt Activity class, in vitro motility)
1 | C[C@@H](C1CC1)n1ccnc1S(=O)(=O)Nc1cccc2cccnc12 [Compound 185, (S)-1-(1-cyclopropyl-ethyl)-N-(quinolin-8-yl)-1H-imidazole-2-sulfonamide] | > 6.70 | 6.30 to 6.70 | 
2 | O=S(=O)(Nc1cccc2cccnc12)c1ccc(-c2ccccc2)nc1 [Compound 189, 6-phenyl-N-(quinolin-8-yl)pyridine-3-sulfonamide] | 6.30 to 6.70 | 5.30 to 6.30 | 
3 | CCn1ccnc1S(=O)(=O)Nc1cccc2cc(Cl)cnc12 [Compound 116, N-(3-chloro-quinolin-8-yl)-1-ethyl-1H-imidazole-2-sulfonamide] | 6.30 to 6.70 | 6.30 to 6.70 | 
4 | Cc1cc(C)c(S(=O)(=O)Nc2cccc3cccnc23)c(Cl)n1 [Compound 177, 2-chloro-4,6-dimethyl-N-(quinolin-8-yl)pyridine-3-sulfonamide] | 5.30 to 6.30 | 5.30 to 6.30 | 
5 | COc1cnc2c(NS(=O)(=O)c3ccc(C)cn3)cccc2c1 [Compound 121, N-(3-methoxy-quinolin-8-yl)-5-methylpyr-idine-2-sulfon-amide] | > 6.70 | 5.30 to 6.30 | 
6 | Cc1nccnc1S(=O)(=O)Nc1ccc(N2CCOCC2)c2cccnc12 [Compound 75, 3-methyl-N-(5-morpho-linoquinolin-8-yl)pyrazine-2-sulfonamide] | > 6.70 | 5.30 to 6.30 | 
7 | CN(C)c1nccnc1S(=O)(=O)Nc1c(Cl)ccc2cccnc12 [Compound 76, N-(7-chloro-quinolin-8-yl)-3-(dimethyl-amino)pyr-azine-2-sulfonamide] | 5.30 to 6.30 | 5.30 to 6.30 | 
8 | Cc1ccc(S(=O)(=O)Nc2cc(F)cc3cccnc23)nc1 [Compound 88, N-(6-fluoro-quinolin-8-yl)-5-methyl-pyridine-2-sulfonamide] | 5.30 to 6.30 | 5.30 to 6.30 | 
9 | Nc1ncccc1S(=O)(=O)Nc1cccc2cccnc12 [Compound 151, 2-amino-N-(quinolin-8-yl)pyridine-3-sulfonamide] | 5.30 to 6.30 | 5.30 to 6.30 | 
10 | O=S(=O)(Nc1cccc2cccnc12)c1cc(F)ccn1 [Compound 160, 4-fluoro-N-(quinolin-8-yl)pyridine-2-sulfonamide] | > 6.70 | 5.30 to 6.30 | 
11 | O=S(=O)(Nc1cccc2cccnc12)c1ccc(-c2ccc(F)cc2)nc1 [Compound 182, 6-(4-fluorophenyl)-N-(quinolin-8-yl)pyridine-3-sulfonamide] | > 6.70 | 5.30 to 6.30 | 
12 | Cc1cc(S(=O)(=O)Nc2cccc3cccnc23)ccn1 [Compound 154, 2-methyl-N-(quinolin-8-yl)pyridine-4-sulfonamide] | 6.30 to 6.70 | 5.30 to 6.30 | 
13 | O=S(=O)(Nc1c(Cl)ccc2cccnc12)c1ncccc1Cl [Compound 73, 3-chloro-N-(7-chloro-quinolin-8-yl)pyridine-2-sulfonamide] | > 6.70 | 5.30 to 6.30 | 
14 | CN(C)c1cccnc1S(=O)(=O)Nc1cccc2c1NCCC2 [Compound 45, 3-(dimethyl-amino)-N-(1,2,3,4-tetra-hydroquin-olin-8-yl)-pyridine-2-sulfonamide] | 5.30 to 6.30 | 5.30 to 6.30 | 
15 | Cc1cnc(C)c(S(=O)(=O)Nc2c(Cl)ccc3cccnc23)n1 [Compound 53, N-(7-chloro-quinolin-8-yl)-3,6-dimethyl-pyrazine-2-sulfonamide] | 5.30 to 6.30 | 5.30 to 6.30 | 
16 | N#Cc1nc(Cl)ccc1S(=O)(=O)Nc1cccc2cccnc12 [Compound 169, 6-chloro-2-cyano-N-(quinolin-8-yl)pyridine-3-sulfonamide] | 5.30 to 6.30 | 5.30 to 6.30 | 
17 | CCn1ccnc1S(=O)(=O)Nc1cccc2cc(C)cnc12 [Compound 105, 1-ethyl-N-(3-methylquin-olin-8-yl)-1H-imidazole-2-sulfonamide] | > 6.70 | 5.30 to 6.30 | 
18 | O=S(=O)(Nc1cccc2cccnc12)c1ccc(Cl)nc1C(F)(F)F [Compound 176, 6-chloro-N-(quinolin-8-yl)-2-(trifluoromethyl) pyridine-3-sulfonamide] | 6.30 to 6.70 | 5.30 to 6.30 | 
19 | Cc1cccnc1S(=O)(=O)Nc1cccc2cc(C3CC3)cnc12 [Compound 29, N-(3-cyclo-propylquin-olin-8-yl)-3-methylpyr-idine-2-sulfonamide] | 5.30 to 6.30 | 5.30 to 6.30 | 
20 | Cc1ccc(S(=O)(=O)Nc2ccc(Cl)c3cccnc23)nc1 [Compound 118, N-(5-chloro-quinolin-8-yl)-5-methylpyr-idine-2-sulfon-amide] | > 6.70 | 5.30 to 6.30 | 
21 | CC(C)c1cccnc1S(=O)(=O)Nc1c(Cl)ccc2cccnc12 [Compound 68, N-(7-chloro-quinolin-8-yl)-3-iso-propylpyr-idine-2-sulfonamide] | > 6.70 | 5.30 to 6.30 | 
22 | Cc1cccnc1S(=O)(=O)Nc1cccc2c(C3CC3)ccnc12 [Compound 27, N-(4-cyclo-propylquin-olin-8-yl)-3-methylpyr-idine-2-sulfonamide] | 5.30 to 6.30 | 5.30 to 6.30 | 
23 | Cc1cc(C#N)cc(S(=O)(=O)Nc2cccc3cccnc23)n1 [Compound 167, 4-cyano-6-methyl-N-(quinolin-8-yl)pyridine-2-sulfonamide] | 6.30 to 6.70 | 5.30 to 6.30 | 

Row | Structure (SMILES) | pIC50 [1, 3] | pIC50 [2] | pIC50 ([1]; read-out: O. gutt Activity class, in vitro motility)
24 | CN(C)c1cccnc1S(=O)(=O)Nc1cccc2cccnc12 [Compound 208, 3-(dimethylamino)-N-(quinolin-8-yl)pyridine-2-sulfonamide] | > 6.70 | 5.30 to 6.30 | 
25 | Cc1ccc(S(=O)(=O)Nc2c(C)ccc3cccnc23)nc1 [Compound 112, 5-methyl-N-(7-methyl-quinolin-8-yl)-pyridine-2-sulfonamide] | 6.30 to 6.70 | 5.30 to 6.30 | 
26 | O=S(=O)(Nc1cccc2cccnc12)c1cccc(Cl)n1 [Compound 221, 6-chloro-N-(quinolin-8-yl)pyridine-2-sulfonamide] | > 6.70 | 5.30 to 6.30 | 
27 | O=S(=O)(Nc1cccc2cccnc12)c1nccn1C1CC1(F)F (centres unmarked) [Compound 174, 1-(2,2-difluorocyclo-propyl)-N-(quinolin-8-yl)-1H-imidazole-2-sulfonamide] | > 6.70 | 6.30 to 6.70 | 
28 | CC(C)n1nccc1S(=O)(=O)Nc1cccc2cccnc12 [Compound 206, 1-isopropyl-N-(quinolin-8-yl)-1H-pyrazole-5-sulfonamide] | 6.30 to 6.70 | 5.30 to 6.30 | 
29 | CC(C)n1nccc1S(=O)(=O)Nc1c(Cl)ccc2cccnc12 [Compound 77, N-(7-chloro-quinolin-8-yl)-1-iso-propyl-1H-pyrazole-5-sulfonamide] | 6.30 to 6.70 | 5.30 to 6.30 | 
30 | Cc1ccc(S(=O)(=O)Nc2ccc(F)c3cccnc23)nc1 [Compound 126, N-(5-fluoro-quinolin-8-yl)-5-methylpyr-idine-2-sulfon-amide] | 5.30 to 6.30 | 6.30 to 6.70 | 
31 | Cc1ccc(S(=O)(=O)Nc2cccc3cccnc23)cn1 [Compound 157, 6-methyl-N-(quinolin-8-yl)pyridine-3-sulfonamide] | 5.30 to 6.30 | 5.30 to 6.30 | 
32 | N#Cc1cccc(S(=O)(=O)Nc2ccc(N3CCOCC3)c3cccnc23)c1 [Compound 80, 3-cyano-N-(5-morpho-linoquinolin-8-yl)ben-zenesulfon-amide] | > 6.70 | 5.30 to 6.30 | 
33 | Cc1cc(NS(=O)(=O)c2nccn2C(C)C)c2ncccc2c1 [Compound 35] | 6.30 to 6.70 | 6.30 to 6.70 | 
34 | COc1ccnc2c(NS(=O)(=O)c3ncccc3C)cccc12 [Compound 14, N-(4-meth-oxyquinolin-8-yl)-3-meth-ylpyridine-2-sulfonamide] | 5.30 to 6.30 | 5.30 to 6.30 | 
35 | O=S(=O)(Nc1cccc2cccnc12)c1cccc(C(F)(F)F)n1 [Compound 156, N-(quinolin-8-yl)-6-(trifluoromethyl) pyridine-2-sulfonamide] | > 6.70 | 5.30 to 6.30 | 
36 | CCn1ccnc1S(=O)(=O)Nc1ccc(C)c2cccnc12 [Compound 83, 1-ethyl-N-(5-methylquin-olin-8-yl)-1H-imidazole-2-sulfonamide] | > 6.70 | 6.30 to 6.70 | 
37 | Cc1cccnc1S(=O)(=O)Nc1c(C2CC2)ccc2cccnc12 [Compound 17, N-(7-cyclo-propylquin-olin-8-yl)-3-methylpyr-idine-2-sulfonamide] | 6.30 to 6.70 | 6.30 to 6.70 | 
38 | COc1ccc(NS(=O)(=O)c2ccc(C)cn2)c2ncccc12 [Compound 123, N-(5-methoxy-quinolin-8-yl)-5-methylpyr-idine-2-sulfon-amide] | > 6.70 | 5.30 to 6.30 | 
39 | CCn1ccnc1S(=O)(=O)Nc1ccc(F)c2cccnc12 [Compound 108, 1-ethyl-N-(5-fluoroquinolin-8-yl)-1H-imidazole-2-sulfonamide] | 5.30 to 6.30 | > 6.70 | 
40 | CCn1ccnc1S(=O)(=O)Nc1cccc2ccc(C)nc12 [Compound 106, 1-ethyl-N-(2-methylquin-olin-8-yl)-1H-imidazole-2-sulfonamide] | 5.30 to 6.30 | 6.30 to 6.70 | 
41 | CCn1ccnc1S(=O)(=O)Nc1cc(C)cc2cccnc12 [Compound 103, 1-ethyl-N-(6-methylquin-olin-8-yl)-1H-imidazole-2-sulfonamide] | 5.30 to 6.30 | 6.30 to 6.70 | 
42 | CCn1ccnc1S(=O)(=O)Nc1cccc2c(OC)ccnc12 [Compound 122, 1-ethyl-N-(4-methoxyquin-olin-8-yl)-1H-imidazole-2-sulfonamide] | > 6.70 | 5.30 to 6.30 | 
43 | Cc1ccnc(S(=O)(=O)Nc2cccc3cccnc23)c1 [Compound 265, 4-methyl-N-(quinolin-8-yl)pyridine-2-sulfonamide] |  | 6.30 to 6.70 | > 6.70
44 | Cc1ccc(S(=O)(=O)Nc2cccc3cccnc23)o1 [Compound 276, 5-methyl-N-(quinolin-8-yl)furan-2-sulfonamide] | 6.30 to 6.70 | 6.30 to 6.70 | 
45 | CN(C)c1cccnc1S(=O)(=O)Nc1cccc2c1N(C1CC1)CCC2 [Compound 42, N-(1-cyclo-propyl-1,2,3,4-tetra-hydroquin-olin-8-yl)-3-(dimethyl-amino)pyr-idine-2-sulfonamide] | 5.30 to 6.30 | 5.30 to 6.30 | 
46 | Cc1cccnc1S(=O)(=O)Nc1cccc2cccnc12 [Compound 213, 3-methyl-N-(quinolin-8-yl)pyridine-2-sulfonamide] | > 6.70 | 5.30 to 6.30 | 
